Like-named read-outs stand apart in the source and are kept apart here.
Tests used:
substantia nigra p-α-s = experiment: Substantia nigra p-α-s protein expression in MPTP Parkinson's disease model mouse (immunofluorescence); type: in vivo; conditions: percentage of mean intensity of blank control group, gavage 21 days after MPTP modeling
Protocol: (§1) Neurotoxins can be used to establish PD animal models. Currently, 1-methyl-4-phenyl-1,2,3,6-tetrahydropyridine (MPTP) is the sole synthetic toxin which is recognized to induce PD symptoms in human and non-human primates and in mice. Using MPTP subacute modeling method, C57BL/6J male mice were intraperitoneally injected with MPTP 30 mg/kg, once a day for 5 consecutive days. The experiment animals were divided into blank control group, MPTP model group, and compound treatment group. For the […] compound treatment group, the compound was administrated by gavage for 21 consecutive days after the completion of modeling; for the MPTP model group, the normal saline was administrated by gavage for 21 consecutive days after the completion of modeling; and for the blank control group, the normal saline was first intraperitoneally injected for 5 days, and then administrated by gavage for 21 days.
Alpha-synuclein is an “unfolded protein” in its natural state. It exists in a monomeric form, and participates in the physiological functions such as the release of neurotransmitters, the establishment of synaptic junctions, and the regulation of synaptic plasticity. Under pathological conditions, more than 90% of alpha-synuclein is phosphorylated at serine of position 129 and converted into phosphorylated alpha-synuclein (p-α-s), thereby forming Lewy bodies. The formation of Lewy bodies is one of the main pathological manifestations and pathological mechanisms for Parkinson's disease, and plays an important role in the formation and development of PD. The detection of the p-α-s expression in the midbrain and substantia nigra of PD model mice can evaluate the neuroprotective activity of the compound.
(§2) Half of experiment mice in each group were taken to separate the midbrain after perfusion and fixation. The tissue was trimmed, and the substantia nigra-striatum area was taken to prepare paraffin sections. The p-α-s immunofluorescence staining was performed in the brain sections of mice in each group. […] The experiment included blank control group, MPTP model group, positive control group (caffeic acid phenethyl ester, CAPE), prototype control group (styryl sulfone compounds 3B, 3C, 3D, and 3G, whose structures are shown as above), and target compound group.

midbrain pp38 = experiment: Midbrain pp38 protein expression in MPTP Parkinson's disease model mouse (western-blotting); type: in vivo; conditions: midbrain total protein, GAPDH internal reference, gavage 21 days after MPTP modeling
Protocol: as §1
The p38 mitogen-activated protein kinase (p38 MAPK) is expressed in both neurons and glial cells, and is the intersection point of neuron-glial cell network information regulations. The activation of p38 signaling pathway is an important initiator of neuronal degeneration, which continuously induces the apoptosis of dopaminergic neurons in multiple ways. It has become a research hotspot for the treatment of PD. Studies have shown that the protective mechanism of CAPE against the death of primary cultured cerebellar granule neurons induced by glutamate lies in inhibiting the activation of p38 phosphorylation and in turn inhibiting the activation of the caspase 3 apoptotic pathway to prevent neuronal apoptosis. Therefore, the MPTP-induced PD mouse model can be used to investigate the inhibitory effect of the target compounds on the activation of p38 phosphorylation on the overall animal level.
Half of experiment mice in each group were taken to extract the total midbrain protein, and the change in the midbrain phosphorylated p38 protein expression was determined by western-blotting using GAPDH as the internal reference. The experiment included blank control group, MPTP model group, positive control group (caffeic acid phenethyl ester, CAPE), prototype control group (styryl sulfone compounds 3B, 3C, 3D, and 3G, whose structures are shown as above), and target compound group.

primary glial cells = experiment: Inhibition of the NO release of primary glial cells induced by LPS; type: cell-based, rat; conditions: Rattus norvegicus, Glial cell, read-out: NO inhibition (%)
Description: Lipopolysaccharide (LPS) is a main component of the cell wall of Gram-negative bacteria. It is a potent inflammatory factor that can directly activate gliocytes, and the activated gliocytes secrete a large amount of inflammation mediators such as tumor necrosis factor, interleukin, and nitric oxide, thus causing inflammatory reactions and oxidative stress reactions and eventually leading to neuronal denaturation and death. In recent years, the targeted injection of LPS into rat substantia nigra or striatum to induce neuroinflammation can successfully establish PD models, which can simulate most of the clinical manifestations and pathological features of PD, and are used for the study on the neuroinflammation mechanism associated with PD. LPS-induced primary glial cell PD inflammation model is suitable for the preliminary anti-neuroinflammation screening for neuroprotective agents. LPS is used to directly activate primary glial cells to simulate the pathogenesis mechanism of neuroinflammation, and the inhibitory activity of the target compounds on the inflammatory response of primary glial cells can be investigated.
The materials were taken from the brain tissue of fetal rat, for primary glial cell culture. At 7 to 10 days of the culture, LPS was added for the activation of nitric oxide (NO) release in glial cells. When a target compound was added, the reduction value for NO content in the cell culture medium was measured, to evaluate the anti-neuroinflammation activity of the compound. The experiment included blank control group, LPS model group, positive control group (caffeic acid phenethyl ester, CAPE), prototype control group (styryl sulfone compounds 3B, 3C, 3D, and 3G, the structures of which compounds are shown as above), and target compound group.

[1] = molecular target: acetylcholinesterase (AchE) (Homo sapiens, UniProt P22303); experiment: biochemical
Protocol: The modified Ellman method was used to determine the inhibitory activity on acetylcholinesterase. The principle lies in that acetylthiocholine iodide is decomposed under the action of acetylcholinesterase (AchE) to generate thiocholine. The thiocholine is quickly reacted with DTNB as the colour-developing agent to generate a yellow substance with light absorption at 405 nm. To a 96-well microplate, 50 μl of enzyme reaction buffer, 125 μl of DTNB (3 mM), 25 μl of test sample or positive control drug, and 25 μl of AchE (0.2 U/ml) were successively added. After incubation at room temperature for 5 min, 25 μl of ATCI (15 mM) was added. After incubation at room temperature for 8 min, the absorbance value was determined at 405 nm with a microplate reader. A blank control group without enzyme (25 μl PBS instead of the sample to be tested) was also established.

substantia nigra TH = experiment: Substantia nigra TH expression in MPTP Parkinson's disease model mouse (immunofluorescence); type: in vivo; conditions: percentage of mean intensity of blank control group, gavage 21 days after MPTP modeling
Protocol: as §1
The main cause of PD lies in the pathological changes in the substantia nigra-striatum projection system of the brain and the progressive degeneration and loss of dopaminergic neurons. Tyrosine hydroxylase (TH) is the first enzyme in the biosynthesis of catecholamine neurotransmitters, as well as the first rate-limiting enzyme in the dopamine synthesis. It plays an important role in the synthesis and metabolism of the neurotransmitter DA. The TH in PD animal models and patients has a wide range of abnormal changes, from the gene expression to the enzyme protein content and enzyme activity. The detection of the TH expression in the midbrain and substantia nigra of PD model mice can be used to evaluate the neuroprotective activity of the compound.
as §2, with “TH” for “p-α-s”

[2] = acetylcholinesterase, modified Ellman method, read-out: IC50

Chain of acetylcholinesterase (AchE) (P22303 32-614, species assumed): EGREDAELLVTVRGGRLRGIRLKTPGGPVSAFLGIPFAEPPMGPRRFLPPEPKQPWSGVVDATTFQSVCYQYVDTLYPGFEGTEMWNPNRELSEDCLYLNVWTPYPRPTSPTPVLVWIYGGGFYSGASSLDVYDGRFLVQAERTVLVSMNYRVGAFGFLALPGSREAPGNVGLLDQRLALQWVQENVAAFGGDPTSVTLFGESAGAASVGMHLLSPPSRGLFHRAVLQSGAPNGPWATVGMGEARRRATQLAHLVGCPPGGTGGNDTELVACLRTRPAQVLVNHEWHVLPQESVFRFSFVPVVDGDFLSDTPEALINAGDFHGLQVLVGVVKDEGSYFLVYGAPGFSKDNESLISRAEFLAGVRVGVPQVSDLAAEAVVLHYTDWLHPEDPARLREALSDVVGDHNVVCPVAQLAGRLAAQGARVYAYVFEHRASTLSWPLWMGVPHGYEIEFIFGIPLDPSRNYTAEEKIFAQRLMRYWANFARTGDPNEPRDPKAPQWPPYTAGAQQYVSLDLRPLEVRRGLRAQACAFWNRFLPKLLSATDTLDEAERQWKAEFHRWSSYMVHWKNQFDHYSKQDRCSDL

| SMILES | Expression (Immunofluorescence intensity %) (substantia nigra p-α-s) [%] | Expression (pp38/GAPDH) (midbrain pp38) | inhibition at 2 µM (primary glial cells; 2 μM) [%] | inhibition at 5 µM (primary glial cells; 5 μM) [%] | inhibition at 10 µM (primary glial cells; 10 μM) [%] | IC50 [1, 2] [µM] | Expression (Immunofluorescence intensity %) (substantia nigra TH) [%] | inhibition at 20 µM (primary glial cells; 20 μM) [%] | inhibition at 2 µM (primary glial cells) [%] | inhibition at 5 µM (primary glial cells) [%] | inhibition at 10 µM (primary glial cells) [%] | IC50 [1] [µM] | inhibition at 20 µM (primary glial cells) [%] |
| --- | --- | --- | --- | --- | --- | --- | --- | --- | --- | --- | --- | --- | --- |
| O=S(=O)(/C=C/c1ccc(O)c(O)c1)Cc1ccc(Cl)cc1 [Compound 3D, (E)-4-{2-[(4-chlorophenyl)mesyl]ethenyl}benzene-1,2-diol, reference compound] | 104.89 ± 7.56 | 1.00 ± 0.11 | 23.5 ± 8.05 | 34.6 ± 4.89 | 74.7 ± 3.32 | > 100 | 87.38 ± 4.01 |  |  |  |  |  |  |
| O=S(=O)(/C=C/c1ccc(O)c(O)c1)CCCc1ccccc1 [Compound 3C, (E)-4-{2-[(3-phenylpropyl)sulfonyl]ethenyl}benzene-1,2-diol, reference compound] | 132.98 ± 7.78 | 0.85 ± 0.22 |  | 9.24 ± 4.88 | 24.6 ± 3.09 | > 100 | 74.63 ± 9.15 | 45.8 ± 5.25 |  |  |  |  |  |
| C=CCOc1ccc(C/C=C/S(=O)(=O)/C=C/c2ccc(OC(C)=O)c(OC(=O)N(CC=C)CC=C)c2)cc1 [Compound K1-4, 4-{(E)-2-[(E)-3-(4-allyloxyphenyl)prop-1-en-1-yl]sulfonylethenyl}-2-(N,N-diallylcarbamoyloxy)phenyl acetate] | 106.95 ± 9.27 | 0.44 ± 0.05 | 30.2 ± 4.01 | 53.5 ± 5.52 | 77.4 ± 5.09 | 16.9 ± 1.22 | 74.20 ± 6.58 |  |  |  |  |  |  |
| CCN(C)C(=O)Oc1ccc(/C=C/S(=O)(=O)CC(c2ccc(-c3ccc(OC)c(OC)c3)cc2)[N+](=O)[O-])cc1OC(=O)N(C)CC (stereo not drawn) [Compound M1-1, (E)-4-{2-[2-(3′,4′-dimethoxy-[1,1′-biphenyl]-4-yl)-2-nitroethylsulfonyl]ethenyl}-1,2-phenylenebis(N-ethyl-N-methylcarbamate)] | 95.64 ± 9.25 | 0.40 ± 0.05 |  |  |  |  | 101.36 ± 5.21 |  | 38.3 ± 3.42 | 52.9 ± 5.36 | 82.7 ± 2.47 | 6.6 ± 0.71 |  |
| COc1cc(/C=C/S(=O)(=O)Cc2cc(OC)c(OC)c(OC)c2)ccc1OC(=O)N(c1ccccc1)c1ccccc1 [Compound K3-3, (E)-2-methoxy-4-{2-[(3,4,5-trimethoxyphenyl)mesyl]ethenyl}-phenyl-N,N-diphenylcarbamate] | 180.11 ± 13.51 | 0.55 ± 0.08 |  | 17.6 ± 3.24 | 40.6 ± 3.11 | 38.3 ± 2.79 | 98.53 ± 3.08 | 72.5 ± 6.08 |  |  |  |  |  |
| Cc1ccc(S(=O)(=O)Oc2ccc(CS(=O)(=O)/C=C/c3ccc(OS(=O)(=O)c4ccc(C)cc4)c(OC(=O)N(C)S(=O)(=O)c4ccc(C)cc4)c3)cc2)cc1 [Compound S6-6, (E)-2-(N-methyl-N-p-tosylcarbamoyloxy)-4-{2-[(4-p-tosyloxyphenyl)mesyl]ethenyl}phenyl p-toluenesulfonate] | 72.57 ± 6.63 | 0.27 ± 0.05 |  |  |  |  | 96.01 ± 7.32 |  |  | 30.2 ± 2.97 | 59.2 ± 3.49 | 15.6 ± 3.07 | 85.1 ± 4.41 |
| CCOC(CS(=O)(=O)/C=C/c1ccc(OC(C)=O)c(OC(=O)Nc2ccc(NC)cc2)c1)C(OCC)c1ccc(OCc2ccccc2)c(O)c1 (stereo not drawn) [Compound H2-4, (E)-4-{2-[3-(4-benzyloxy-3-hydroxyphenyl)-2,3-diethoxypropyl]sulfonylethenyl}-2-[N-(4-methylaminophenyl)carbamoyloxy]phenyl acetate] | 136.53 ± 8.94 | 0.43 ± 0.05 | 32.2 ± 4.49 | 50.1 ± 5.37 | 85.4 ± 4.9 | 11.3 ± 1.34 | 95.20 ± 6.06 |  |  |  |  |  |  |
| COCCN(C)C(=O)Oc1cc(/C=C/S(=O)(=O)CCc2cccc(-c3ccc(C)o3)c2)ccc1OC(C)=O [Compound J1-4, (E)-2-[N-(2-methoxyethyl)-N-methylcarbamoyloxy]-4-{2-[3-(5-methylfur-2-yl)phenylethylsulfonyl]ethenyl}phenyl acetate] | 116.95 ± 8.06 | 0.41 ± 0.08 |  |  |  |  | 88.65 ± 5.41 |  | 24.8 ± 5.02 | 40.9 ± 3.94 | 69.7 ± 5.85 | 8.54 ± 1.65 |  |
| COc1ccc(CC(=O)Oc2ccc(C(N)CS(=O)(=O)/C=C/c3ccc(OC(C)(C)C)c(OC(=O)N(C)c4ccccc4)c3)cc2)cc1 (stereo not drawn) [Compound P1-3, (E)-4-{1-amino-2-[4-t-butoxy-3-(N-methyl-N-phenylcarbamoyloxy)styrylsulfonyl]ethyl}phenyl-2-(4-methoxyphenyl)acetate] | 48.33 ± 5.37 | 0.33 ± 0.07 |  |  |  |  | 79.20 ± 6.53 |  |  | 25.8 ± 4.25 | 42 ± 5.34 | 14.4 ± 2.04 | 58.2 ± 3.66 |
